Values after ≈ are worked out from the molar mass of the structure shown. Active and inactive are the calls of the source. No cut-off for these calls is given here.
Columns and labels:
Staphylococcus aureus = assay: Antimicrobial activity against Staphylococcus aureus NCTC 8530 after 24 hrs by broth microdilution method; type: functional, organism-based
Pseudomonas aeruginosa = assay: Antimicrobial activity against Pseudomonas aeruginosa IFO 3080 after 24 hrs by broth microdilution method; type: functional, organism-based
Bacillus licheniformis = assay: Antimicrobial activity against Bacillus licheniformis IFO 12107 after 24 hrs by broth microdilution method; type: functional, organism-based
Escherichia coli = assay: Antimicrobial activity against Escherichia coli IFO 3545 after 24 hrs by broth microdilution method; type: functional, organism-based
[1] = test system: Schizosaccharomyces pombe; assay: Antimicrobial activity against Schizosaccharomyces pombe IFO 0342 after 24 hrs by broth microdilution method; type: functional, organism-based
Mucor javanicus [2] = assay: Antimicrobial activity against Mucor javanicus IFO 4569 after 24 hrs by broth microdilution method; type: functional; settings: IFO 4569, 24 h
Fusarium oxysporum [3] = assay: Antimicrobial activity against Fusarium oxysporum NBRC 5942 after 24 hrs by broth microdilution method; type: functional; settings: NBRC 5942, 24 h
Fusarium avenaceum = assay: Antimicrobial activity against Fusarium avenaceum NBRC 33237 after 24 hrs by broth microdilution method; type: functional; settings: NBRC 33237, 24 h
Fusarium graminearum [4] = assay: Antimicrobial activity against Gibberella zeae NBRC 8850 after 24 hrs by broth microdilution method; type: functional; settings: NBRC 8850, 24 h
Aspergillus fumigatus = assay: Antimicrobial activity against Aspergillus fumigatus IFO 5840 after 24 hrs by broth microdilution method; type: functional; settings: IFO 5840, 24 h
Aspergillus nidulans [5] = assay: Antimicrobial activity against Aspergillus nidulans FGSC A4 after 24 hrs by broth microdilution method; type: functional; settings: FGSC A4, 24 h
Neurospora sitophila = assay: Antimicrobial activity against Neurospora sitophila DSM 1130 after 24 hrs by broth microdilution method; type: functional; settings: DSM 1130, 24 h
Mucor mucedo [6] = assay: Antimicrobial activity against Mucor mucedo IFO 7684 at <6.55 uM after 24 hrs by broth microdilution method; type: functional, organism-based
Mucor javanicus [7] = assay: Antimicrobial activity against Mucor javanicus IFO 4569 at <6.55 uM after 24 hrs by broth microdilution method; type: functional
Fusarium oxysporum [8] = assay: Antimicrobial activity against Fusarium oxysporum IFO 7152 at <6.55 uM after 24 hrs by broth microdilution method; type: functional, organism-based
Fusarium oxysporum [9] = assay: Antimicrobial activity against Fusarium oxysporum NBRC 30700 at <6.55 uM after 24 hrs by broth microdilution method; type: functional, organism-based
Fusarium solani [10] = assay: Antimicrobial activity against Fusarium solani NBRC 5899 at <6.55 uM after 24 hrs by broth microdilution method; type: functional, organism-based
Fusarium solani [11] = assay: Antimicrobial activity against Fusarium solani NBRC 8505 at <6.55 uM after 24 hrs by broth microdilution method; type: functional, organism-based
Fusarium graminearum [12] = assay: Antimicrobial activity against Gibberella zeae NBRC 8850 at <6.55 uM after 24 hrs by broth microdilution method; type: functional, organism-based
Fusarium fujikuroi = assay: Antimicrobial activity against Gibberella fujikuroi NBRC 6349 at <6.55 uM after 24 hrs by broth microdilution method; type: functional, organism-based
Aspergillus nidulans [13] = assay: Antimicrobial activity against Aspergillus nidulans FGSC A4 at <6.55 uM after 24 hrs by broth microdilution method; type: functional, organism-based
Mucor mucedo [14] = assay: Induction of morphological changes in Mucor mucedo IFO 7684 assessed as thickening of hyphae at MIC after 24 hrs by microscopic analysis; type: functional, organism-based
Mucor mucedo [15] = assay: Induction of morphological changes in Mucor mucedo IFO 7684 assessed as abnormal hyphae branching at MIC after 24 hrs by microscopic analysis; type: functional, organism-based
HL-60 = assay: Cytotoxicity against human HL60 cells up to 65.5 uM after 24 hrs by Alamar blue assay; type: cell-based; settings: hl-60, 24 h
NIH3T3 = assay: Cytotoxicity against mouse NIH/3T3 cells up to 65.5 uM after 24 hrs by Alamar blue assay; type: cell-based; settings: nih3t3, 24 h
Fusarium oxysporum [16] = assay: Antifungal activity against Fusarium oxysporum NBRC 5942 under hyperosmotic shock at 0.026 uM after 2 days by paper disc method; type: functional, organism-based
Mucor mucedo [17] = assay: Inhibition of DNA synthesis in Mucor mucedo IFO 7684 assessed as [8-14C]-adenine uptake into acid-insoluble fractions at 0.13 uM after 25 mins by liquid scintillation counting; type: functional; settings: IFO 7684, 25 min
[18] = Binding affinity to chitin at 6.55 uM after 30 mins by HPLC analysis
[19] = Binding affinity to curdlan at 6.55 uM after 30 mins by HPLC analysis
[20] = Binding affinity to chemically deacetylated chitin at 6.55 uM after 30 mins by HPLC analysis
Fusarium oxysporum [21] = assay: Binding affinity to cell wall polysaccharides in Fusarium oxysporum NBRC 5942 at 6.55 uM after 30 mins by HPLC analysis
Mucor mucedo [22] = assay: Induction of morphological changes in Mucor mucedo IFO 7684 assessed as thickening of hyphae at 0.026 uM after 24 hrs by microscopic analysis in presence of 100 uM of PKA activator dbcAMP; type: functional, organism-based

## C=C1NC(=O)[C@H]2CSC(=N2)c2csc(n2)-c2ccc3c(n2)[C@H](C)NC(=O)[C@@H]2CCCN2C(=O)/C(=C/C)NC(=O)CNC(=O)[C@H](CCCNC(=N)N)NC(=O)C(C)(NC(=O)/C(=C/C)NC(=O)C2CSC(=N2)[C@H](CC(N)=O)NC3=O)SC[C@@H](C(=O)O)NC(=O)[C@H]2CSC(=N2)c2csc(n2)-c2csc1n2 [CYCLOTHIAZOMYCIN B1]
Staphylococcus aureus
  Activity: inactive
Pseudomonas aeruginosa
  Activity: inactive
Bacillus licheniformis
  Activity: inactive
Escherichia coli
  Activity: inactive
[1]
  Activity: inactive
Mucor javanicus [2]
  MIC: 0.078 µg/mL (≈ 0.051 µM)
Fusarium oxysporum [3]
  MIC: 0.5 µg/mL (≈ 0.327 µM)
Fusarium avenaceum
  MIC: 0.25 µg/mL (≈ 0.164 µM)
Fusarium graminearum [4]
  MIC: 0.063 µg/mL (≈ 0.0412 µM)
Aspergillus fumigatus
  MIC: > 1000 µg/mL
Aspergillus nidulans [5]
  MIC: > 1000 µg/mL
Neurospora sitophila
  MIC: > 1000 µg/mL
Mucor mucedo [6]
  Activity: inactive
Mucor javanicus [7]
  Activity: inactive
Fusarium oxysporum [8]
  Activity: inactive
Fusarium oxysporum [9]
  Activity: inactive
Fusarium solani [10]
  Activity: inactive
Fusarium solani [11]
  Activity: inactive
Fusarium graminearum [12]
  Activity: inactive
Fusarium fujikuroi
  Activity: inactive
Aspergillus nidulans [13]
  Activity: inactive
Mucor mucedo [14]
  Activity: Active
Mucor mucedo [15]
  Activity: Active
HL-60
  Activity: Non-toxic
NIH3T3
  Activity: Non-toxic
Fusarium oxysporum [16]
  Activity: inactive
Mucor mucedo [17]
  inhibition at 0.13 µM: 84%
[18]
  Activity: Active
[19]
  Activity: inactive
[20]
  Activity: inactive
Fusarium oxysporum [21]
  Activity: inactive
Mucor mucedo [22]
  Activity: Active

Source: ChEMBL document CHEMBL1817597, “Antifungal thiopeptide cyclothiazomycin B1 exhibits growth inhibition accompanying morphological changes via binding to fungal cell wall chitin” (Bioorg Med Chem, 2011)
